This is an account of results in publication PMC3602143 (Bioorganic & medicinal chemistry letters, 2013).

The conditions of data set [1]: background statement; cited from earlier work.
The subject of data set [2] is strain of T. gondii engineered to express the bacterial GlpT. Conditions: ref [22]; cited from earlier work.
Data set [3] has as its system bacteria including E. coli. Conditions: ref [11]; cited from earlier work.
A further data set deals with T. gondii. In words: T. gondii growth / proliferation. It counts as cell-based, Toxoplasma gondii. Conditions: previous method of ref [22].
The target of data set [4] is T1, recombinant T. gondii DXR (TgDXR) (Toxoplasma gondii, UniProt S8ESX0).
T1 sequence (S8ESX0 187-632): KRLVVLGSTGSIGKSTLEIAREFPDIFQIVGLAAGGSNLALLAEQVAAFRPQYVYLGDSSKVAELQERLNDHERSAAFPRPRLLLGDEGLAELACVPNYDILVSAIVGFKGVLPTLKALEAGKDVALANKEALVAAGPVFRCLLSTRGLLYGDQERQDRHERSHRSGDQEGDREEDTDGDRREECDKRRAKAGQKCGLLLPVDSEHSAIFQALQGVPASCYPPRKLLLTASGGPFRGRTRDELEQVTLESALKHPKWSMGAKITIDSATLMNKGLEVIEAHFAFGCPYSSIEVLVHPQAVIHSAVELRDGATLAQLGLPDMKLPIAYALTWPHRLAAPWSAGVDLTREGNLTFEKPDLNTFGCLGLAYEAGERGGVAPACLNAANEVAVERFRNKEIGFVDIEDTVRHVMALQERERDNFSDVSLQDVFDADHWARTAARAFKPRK
In words: TgDXR enzyme inhibition assay. It counts as biochemical. Particulars: average of acetyl analogs 8 and 9 vs 6 and 7.

Another data set concerns malaria parasites. Conditions: ref [16]; cited from earlier work.
The test system of the next data set is EcDXR. Conditions: read-out: Km of EcDXR; substrate DXP; ref [13]; cited from earlier work.
Another data set concerns PfDXR. Particulars: read-out: Km of PfDXR; substrate DXP; ref [15]; cited from earlier work.
Data set [5] has as its system Mycobacterium tuberculosis DXR. Particulars: read-out: Km of Mycobacterium tuberculosis DXR; substrate DXP; ref [23]; cited from earlier work.
Substrate in data set [6]: CC(=O)[C@@H](O)[C@H](O)COP(=O)(O)O
In words: TgDXR enzyme inhibition assay. Conditions: other: DXP 10 to 450 μM, [Mg2+] = 4 mM, Michaelis-Menten fit; 30.0 °C. It counts as biochemical, Toxoplasma gondii.

The Km is the concentration of substrate that gives half-maximal velocity.

On to `O=CN(O)CCCP(=O)(O)O` [Compound 1, Fosmidomycin], for which the half-life in plasma result in data set [1] is reported as “very short”. The “killing of GlpT-expressing T. gondii” value in data set [2] was “can effectively kill”.

For `O=c1ccc(-c2ccccc2)cn1O` [Compound 5], the antibacterial activity entry in data set [3] is listed as “broad antibacterial activity”. Also, the “block of proliferation / activity against growth of T. gondii” value with T. gondii is “does not block proliferation”. With `CC(=O)N(O)CCC(c1cccnc1)P(=O)(O)O` (stereo not drawn) [Compound 8], the “fold less activity against TgDXR than formyl analogs 6 and 7” value in [4] is ~ 11 fold. In the case of `CC(=O)N(O)CCC(c1ccncc1)P(=O)(O)O` (stereo not drawn) [Compound 9], in data set [4], the “fold less activity against TgDXR than formyl analogs 6 and 7” value is ~ 11 fold.

In the case of `O=CN(O)CCC(c1ccc(Cl)c(Cl)c1)P(=O)(O)O` (stereo not drawn) [Compound 10], the antimalarial activities entry with malaria parasites is reported as “potent”. On to `CC(=O)N(O)CCC(c1ccc(Cl)c(Cl)c1)P(=O)(O)O` (stereo not drawn) [Compound 11], for which the antimalarial activities entry with malaria parasites is on record as “potent”. For `CC(=O)[C@@H](O)[C@H](O)COP(=O)(O)O` [DXP, 1-deoxy-D-xylulose-5-phosphate], the figures for the Km (in the data set with EcDXR; in the data set on PfDXR; in [5]) were 99 µM, 106 µM and 47 µM, respectively.

B1: recombinant T. gondii DXR (TgDXR) (Toxoplasma gondii ME49) (protein)
chain: KRLVVLGSTGSIGKSTLEIAREFPDIFQIVGLAAGGSNLALLAEQVAAFRPQYVYLGDSSKVAELQERLNDHERSAAFPRPRLLLGDEGLAELACVPNYDILVSAIVGFKGVLPTLKALEAGKDVALANKEALVAAGPVFRCLLSTRGLLYGDQERQDRHERSHRSGDQEGDREEDTDGDRREECDKRRAKAGQKCGLLLPVDSEHSAIFQALQGVPASCYPPRKLLLTASGGPFRGRTRDELEQVTLESALKHPKWSMGAKITIDSATLMNKGLEVIEAHFAFGCPYSSIEVLVHPQAVIHSAVELRDGATLAQLGLPDMKLPIAYALTWPHRLAAPWSAGVDLTREGNLTFEKPDLNTFGCLGLAYEAGERGGVAPACLNAANEVAVERFRNKEIGFVDIEDTVRHVMALQERERDNFSDVSLQDVFDADHWARTAARAFKPRK
On to B1, for which, in [6], the Km was 25.5 ± 3.7 µM.
